Data: patent US20100298285A1, “Biclycloheteroaryl Compounds as P2x7 Modulators and Uses Thereof” (priority 2006, published 2010)

test system: IL-1β release, THP-1 cells; assay: IL-1β release assay in differentiated THP-1 cells stimulated with BzATP (Example 9); type: cell-based; settings: Homo sapiens; 0.1 μM compound ("*" symbols); differentiated THP-1 cells, 250 uM BzATP; read-out: IL-1β% Inhib. @ 0.3 or 0.1 μM
Description: THP-1 cells (ATCC Cat # 285-IF-100) are plated in 96 well plates at a concentration of 200,000 cells per well and allowed to differentiate in RPMI-1640 media (ATCC Cat # 30-2001) containing 10% FBS, 100 IU/mL penicillin, 100 ug/mL streptomycin, 100 ng/mL LPS and 100 ng/mL IFN-γ for 16 hours. Following differentiation, the cells are treated for an additional 2 hours in RPMI-1640 media containing 100 IU/mL penicillin, 100 ug/mL streptomycin and fresh LPS at 100 ng/mL. The cells are then pretreated for 30 minutes with the compound of interest at the appropriate concentration in RPMI media containing 100 IU/mL penicillin, 100 ug/mL streptomycin. Following the pretreatment 2′,3′-O-(4-benzoylbenzoyl)-adenosine 5′-triphosphate (Sigma Aldrich Cat # B6396) is added to a final concentration of 250 uM and the cells are incubated for an additional 45 minutes. 30 uL of cell supernatant is then collected and IL-1β levels determined via ELISA (R&D systems Cat. # HSLB50) according to manufacturer's recommendations using the Tecan Safire plate reader. Background adjusted IL-1β levels of drug treated and non-treated cells are used to calculate the percent inhibition.
The following compounds have been or can be prepared according to the synthetic methods described above. For the purpose of Table 1 below, activity of each compound, which can be determined using the IL-1β assay method described in Example 9, is expressed as follows: […]
The compounds set forth in Table 1 were tested for activity in a cellular model as described herein. Specifically, cells were pretreated with differing amounts of the compound under test and released IL-1β determined as in Example 9, above. Measurements were made and IC50 values, presented in Table 2, below, were determined by fitting the data to a four parameter logistic equation using GraphPad Prism software (GraphPad Software, Inc). The equation may be expressed by the following formula:
Y=Bottom+(Top−Bottom)/(1+10̂((Log EC50−X)*HillSlope))
Where X is the logarithm of concentration, Y is the response and Y starts at Bottom and goes to Top with a sigmoid shape.

`N#Cc1ccc(S(=O)(=O)N2CCc3c(ccc(Cl)c3NC(=O)Cc3ccc(C(F)(F)F)cc3)C2)cc1` [Compound 3029] and `O=C(Cc1ccc(C(F)(F)F)cc1)Nc1c(Cl)ccc2c1CCN(S(=O)(=O)c1cc(F)cc(F)c1)C2` [Compound 3006] fall in the same range of inhibition at 0.1 µM: 0 to 25% for the first, 0 to 25% for the second.

`O=C(Cc1ccc(C(F)(F)F)cc1)Nc1c(Cl)ccc2c1CCN(S(=O)(=O)c1ccc(C(F)(F)F)cc1Cl)C2` [Compound 3021] and `O=C(Cc1ccc(C(F)(F)F)cc1)Nc1c(Cl)ccc2c1CCN(S(=O)(=O)c1cc(C(F)(F)F)ccc1Cl)C2` [Compound 3022] fall in the same range of inhibition at 0.1 µM: 0 to 25% for the first, 0 to 25% for the second.

`Cc1ccc(S(=O)(=O)N2CCc3c(ccc(Cl)c3NC(=O)Cc3ccc(C(F)(F)F)cc3)C2)c(C)c1` [Compound 3026] showed an inhibition at 0.1 µM of 0 to 25%.

same assay, conditions: Homo sapiens; 0.3 μM compound ("+" symbols); differentiated THP-1 cells, 250 uM BzATP; read-out: IL-1β% Inhib. @ 0.3 or 0.1 μM

`O=C(Cc1ccc(C(F)(F)F)c(F)c1)Nc1c(Cl)ccc2c1CCN(C(=O)c1ccc(-c3ccccc3)cc1)C2` [Compound 3077] and `O=C(Cc1ccc(C(F)(F)F)c(F)c1)Nc1c(Cl)ccc2c1CCN(C(=O)c1cccc3ccccc13)C2` [Compound 3121] fall in the same range of inhibition at 0.3 µM: 0 to 25% for the first, 0 to 25% for the second.

`CC(=O)N1CCc2c(ccc(Cl)c2NC(=O)Cc2ccc(C(F)(F)F)c(F)c2)C1` [Compound 3069] and `CC(=O)N1CCc2c(ccc(Cl)c2NC(=O)Cc2cccc(C(F)(F)F)c2F)C1` [Compound 3136] fall in the same range of inhibition at 0.3 µM: 0 to 25% for the first, 0 to 25% for the second.

`O=C(Cc1ccc(C(F)(F)F)c(F)c1)Nc1cccc2c1CCN(CC(O)CF)C2` (stereo not drawn) [Compound 3064] and `C[C@H](N)C(=O)N1CCc2c(cccc2NC(=O)Cc2ccc(C(F)(F)F)c(F)c2)C1` [Compound 3054] fall in the same range of inhibition at 0.3 µM: 0 to 25% for the first, 0 to 25% for the second.

First: O=C(Cc1ccc(C(F)(F)F)c(F)c1)Nc1c(Cl)ccc2c1CCN(C(=O)C1CC1c1ccccc1)C2 (stereo not drawn) [Compound 3099]
Second: O=C(Cc1ccc(C(F)(F)F)c(F)c1)Nc1c(Cl)ccc2c1CCN(C(=O)c1ccccc1C(F)(F)F)C2 [Compound 3106]
The inhibition at 0.3 µM of the first is lower: 0 to 25% for the first, 26 to 50% for the second.

`O=C(Cc1ccc(C(F)(F)F)c(F)c1)Nc1c(Cl)ccc2c1CCN(C(=O)c1ccc(Cl)cc1Cl)C2` [Compound 3100] and `O=C(Cc1ccc(C(F)(F)F)c(F)c1)Nc1c(Cl)ccc2c1CCN(C(=O)c1ccc(Cl)c(Cl)c1)C2` [Compound 3086] fall in the same range of inhibition at 0.3 µM: 0 to 25% for the first, 0 to 25% for the second.

Compared with `Cc1cccc(C(=O)N2CCc3c(ccc(Cl)c3NC(=O)Cc3ccc(C(F)(F)F)c(F)c3)C2)c1` [Compound 3074], `COc1ccc(C(=O)N2CCc3c(ccc(Cl)c3NC(=O)Cc3ccc(C(F)(F)F)c(F)c3)C2)cc1` [Compound 3076] is lower in inhibition at 0.3 µM: 26 to 50% for the first, 0 to 25% for the second.

`O=C(Cc1cccc(C(F)(F)F)c1F)Nc1c(Cl)ccc2c1CCN(C(=O)C1CCCCC1)C2` [Compound 3147] and `O=C(Cc1ccc(C(F)(F)F)c(F)c1)Nc1c(Cl)ccc2c1CCN(C(=O)CCC1CCCC1)C2` [Compound 3075] fall in the same range of inhibition at 0.3 µM: 0 to 25% for the first, 0 to 25% for the second.

Compared with `CCCc1ccc(C(=O)N2CCc3c(ccc(Cl)c3NC(=O)Cc3cccc(C(F)(F)F)c3F)C2)cc1` [Compound 3146], `O=C(Cc1cccc(C(F)(F)F)c1F)Nc1c(Cl)ccc2c1CCN(C(=O)c1ccc(F)cc1)C2` [Compound 3154] is lower in inhibition at 0.3 µM: 26 to 50% for the first, 0 to 25% for the second.

`O=C(Cc1ccc(C(F)(F)F)c(F)c1)Nc1cccc2c1CCN(C(=O)COC1CCNCC1)C2` [Compound 3052] and `O=C(Cc1cccc(C(F)(F)F)c1F)Nc1c(Cl)ccc2c1CCN(C(=O)c1cc(Cl)cc(Cl)c1)C2` [Compound 3195] fall in the same range of inhibition at 0.3 µM: 0 to 25% for the first, 0 to 25% for the second.

First: Cc1nn(-c2ccccc2)nc1C(=O)N1CCc2c(ccc(Cl)c2NC(=O)Cc2cccc(C(F)(F)F)c2F)C1 [Compound 3172]
Second: CS(=O)(=O)N1CCc2c(ccc(Cl)c2NC(=O)Cc2ccc(C(F)(F)F)cc2)C1 [Compound 3050]
The inhibition at 0.3 µM of the first is lower: 0 to 25% for the first, 26 to 50% for the second.

same assay, conditions: Homo sapiens; THP-1 cells, BzATP 250 uM, four parameter logistic fit

Going from `O=C(Cc1ccc(C(F)(F)F)c(F)c1)Nc1cccc2c1CCN(CC(O)CF)C2` (stereo not drawn) [Compound 3064] to `C[C@H](N)C(=O)N1CCc2c(cccc2NC(=O)Cc2ccc(C(F)(F)F)c(F)c2)C1` [Compound 3054], the IC50 falls from over 1000 nM to 684 nM.

First: O=C(Cc1ccc(C(F)(F)F)c(F)c1)Nc1cccc2c1CCN(C(=O)COC1CCNCC1)C2 [Compound 3052]
Second: Cc1ccc2c(c1NC(=O)Cc1ccc(C(F)(F)F)c(F)c1)CCN(C(=O)C(C)C)C2 [Compound 3215]
The IC50 of the first is 18-fold higher: 890 nM for the first, 48.6 nM for the second. The second is the more potent here.

`CS(=O)(=O)N1CCc2c(ccc(Cl)c2NC(=O)Cc2ccc(C(F)(F)F)cc2)C1` [Compound 3050] showed an IC50 of 492 nM.
